Laboratory results: PubChem BioAssay AID1394 (PCMD, 2008)
The source made the active and inactive calls.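 How the source made its calls: active means fitted EC50 above 0 with maximum enhancement above 35%; inactive means the rest.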

Molecular target: E3 ubiquitin-protein ligase Mdm2 (Homo sapiens) (UniProt Q00987)
Assay: 384-well cell-based luminescence, MDM2-luciferase reporter signal enhancement, concentration series, MDM2 ligase inhibitor project (AID 1394)
Settings: cells, MDM2-luciferase autoubiquitination reporter, 2 h

E3 ubiquitin-protein ligase Mdm2 (Homo sapiens), sequence (Q00987 whole entry, looked up): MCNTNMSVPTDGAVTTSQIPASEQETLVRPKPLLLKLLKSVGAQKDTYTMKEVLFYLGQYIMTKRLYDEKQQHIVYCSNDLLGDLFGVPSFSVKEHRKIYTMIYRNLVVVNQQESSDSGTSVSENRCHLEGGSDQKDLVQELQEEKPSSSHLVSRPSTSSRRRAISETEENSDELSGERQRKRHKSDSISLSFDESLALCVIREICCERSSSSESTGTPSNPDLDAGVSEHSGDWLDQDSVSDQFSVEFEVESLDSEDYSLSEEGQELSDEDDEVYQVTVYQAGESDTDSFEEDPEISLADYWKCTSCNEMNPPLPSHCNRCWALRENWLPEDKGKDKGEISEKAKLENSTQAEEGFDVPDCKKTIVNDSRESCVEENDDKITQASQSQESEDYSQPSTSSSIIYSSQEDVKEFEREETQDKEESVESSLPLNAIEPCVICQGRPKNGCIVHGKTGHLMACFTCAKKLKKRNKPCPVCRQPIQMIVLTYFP

SMILES | EC50
O=C1CC(c2cccc(Cl)c2)CC(O)=C1C=NC1CCCC1 (centres undefined) | inactive

Same assay, conditions: cells, MDM2-luciferase autoubiquitination reporter, 2 h

SMILES | maximum enhancement
Cn1c(=O)cc(OCC(=O)NCc2cccs2)c2ccccc21 | inactive
Cc1ccc(Nc2nnc(SCC3CCCCO3)s2)cc1 (centres undefined) | inactive
Cc1[nH]c2ccc(Cl)cc2c(=O)c1CN1CCCC1 | inactive
Fc1cccc(Cl)c1/C=N/n1c(-c2cccnc2)n[nH]c1=S | inactive
COC(Cn1cc(C)c(=O)[nH]c1=O)OC | inactive
CC1=NN(c2ccc(C)cc2)C(=O)/C1=C\C=C\c1ccccc1 | inactive
Cn1c(=NC(=O)c2ccc3c(c2)OCCO3)sc2cc(S(C)(=O)=O)ccc21 | inactive
O=C(O)CCc1ccc(-c2ccc(Br)cc2)n1CC(=O)O | inactive
CCCCC(=O)/C=C/n1c(=S)oc2ccccc21 | inactive
Cc1cc(=O)n2[nH]c(N3C(=O)CCC3=O)nc2n1 | inactive
COc1ccc(N2C(=S)N=C(Nc3ccccc3)C23CCCCC3)cc1 | inactive
O=S1(=O)C=C(Sc2nc3ccccc3s2)c2ccccc21 | inactive
CCN(C(=O)CSc1nc2ccccc2c(=O)n1-c1cccc(C)c1)C1CCS(=O)(=O)C1 (centres undefined) | inactive
Cc1ccc(/C=C2/NC(=O)N(Cc3ccc(Br)cc3)C2=O)o1 | inactive
COc1cc(/C=C2/C(=N)N3OC(C)=CC3=NC2=O)ccc1OC(=O)c1ccco1 | inactive
CC(=O)Cc1nsc(Nc2ccc(C)cc2)n1 | inactive
CCn1cc(C(=O)NCc2ccccc2OC)c(=O)c2cc(S(=O)(=O)N(C)C)ccc21 | inactive

SMILES | maximum enhancement
Cc1cc(C)cc(OCC(=O)NNC(=O)CCN2C(=O)c3ccccc3C2=O)c1 | inactive
Cc1ccc(N2C(=O)NC(=O)/C(=C\C=C\c3ccco3)C2=O)cc1C | inactive
N=C1C(c2nc3ccccc3[nH]2)=C(O)CN1c1ccccc1 | inactive
O=C(c1cn(-c2ccccc2)nc1-c1cccs1)N1CCOCC1 | inactive
O=C(CN1CCCCC1)NC(=O)NCc1ccccc1 | inactive
COc1ccc(OC(C)C(=O)Nc2ccccc2C(F)(F)F)cc1 (centres undefined) | inactive
CCc1cc2c(=O)c(-c3nc4ccccc4n3C)c(CCCC(=O)O)oc2cc1OC(=O)C(C)(C)C | inactive
N#Cc1nc(Cc2ccccc2)oc1NCCN1CCOCC1 | inactive
COc1ccccc1-c1nnc(Nc2nc3c(OC)cccc3s2)o1 | inactive
C=C1CCN(C(C(=O)OC)C(C)C)S(=O)(=O)c2ccccc21 (centres undefined) | inactive
CCCCS(=O)(=O)/C=C\C=C/S(=O)(=O)CCCC | inactive
COc1ccc(NC(=O)/C(C#N)=C\c2ccc(OCc3ccc(C(=O)O)cc3)c(OC)c2)cc1 | inactive
O=C(COc1ccccc1)Nc1ncccn1 | inactive
CCN(CC)Cc1cc(C(=O)O)c(C)o1 | inactive
O=C(CNCc1ccc(Cl)cc1)Nc1cccc(C(=O)O)c1 | inactive
C/C(=N\NC(N)=S)c1cccnc1 | inactive
